Experimental data reported in PMC9756341 (Journal of the American Chemical Society, 2022).
Where “and” joins values, the source holds several entries; their conditions need not be identical. Equal entries are not always repeated. Values belong to the substance of their own block, whether it stands above or below them. The star is where a group is joined. ACC = NC(=O)Cc1cc(=O)oc2cc(N*)ccc12; AMC = Cc1cc(=O)oc2cc(N*)ccc12; Boc = CC(C)(C)OC(=O)*

Legend:
KLK7 [1] = target: T1, KLK7 (Homo sapiens, UniProt P49862); experiment: Enzyme kinetics to calculate KM, KLK7; type: biochemical; conditions: fluorogenic substrate, KLK7 34 nM, 2% DMSO, room temperature, 30 min, Michaelis-Menten model, triplicates
T1 construct: gift from the group of Judith Clements (QUT)
T1 sequence (P49862 30-253): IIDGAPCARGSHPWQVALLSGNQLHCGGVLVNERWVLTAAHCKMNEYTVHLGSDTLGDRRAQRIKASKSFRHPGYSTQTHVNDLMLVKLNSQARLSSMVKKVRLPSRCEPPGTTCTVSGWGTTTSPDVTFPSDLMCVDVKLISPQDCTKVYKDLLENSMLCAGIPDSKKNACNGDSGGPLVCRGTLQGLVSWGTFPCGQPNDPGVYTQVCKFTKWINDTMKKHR
Description: (§1) Reagents were obtained from VWR, Sigma Aldrich, Sartorius, Fluorochem, AGTC, Novabiochem, TCI, Alfa Aesar, Iris Biotech, Thermofisher and Bachem. […]
(§2) (Code 7449-SE) and KLK8 (Code 2025-SE) were obtained from BioTechne. KLK6 was obtained from the group of Aubry Miller (DKFZ) and KLK7 was obtained from the group of Judith Clements (QUT).
(§3) The manufacturer’s recommended buffers were used with uPA and tPA but not KLK8. […]
(§4) Fluorescence measurements were measured using an Envision plate reader. Fluorescence data was processed using Graphpad Prism 8. […]
(§5) 2-chlorotrityl chloride resin. […]
(§6) 380nm/440nm. The data was analysed using Graphpad Prism 8. The initial slopes of each plot were calculated and presented in a bar chart, which represents the substrate specificity of the KLK. Error bars represent the standard deviation between the three replicates.
(§7) Enzyme kinetics to calculate KM. Purified fluorogenic substrates were measured in triplicates. […]
(§8) temperature, fluorescence was read once every 30 s for 30 min from an Envision plate reader at excitation/emission wavelengths of 380nm/440nm. The data was analysed with Graphpad Prism 8, using the Michaelis-Menten model.
(§9) Enzyme kinetics to calculate kobs/I. All ABPs and inhibitors were measured in triplicates. […]
(§10) using a pseudo first order kinetics model. The observed rate of inhibition (kobs) was calculated by plotting a one-phase association. […]

KLK8 [2] = target: T2, KLK8 (Homo sapiens, UniProt O60259); experiment: Enzyme kinetics to calculate KM, KLK8; type: biochemical; conditions: fluorogenic substrate, KLK8 1 nM, 2% DMSO, room temperature, 30 min, Michaelis-Menten model, triplicates
T2 construct: Active recombinant FGFBP1 (Code 1593-FB), HSPG2 (Code 2364-ER), uPA (Code 1310-SE), tPA (Code 7449-SE) and KLK8 (Code 2025-SE) were obtained from BioTechne; purchased BioTechne 2025-SE
T2 sequence (O60259 33-260): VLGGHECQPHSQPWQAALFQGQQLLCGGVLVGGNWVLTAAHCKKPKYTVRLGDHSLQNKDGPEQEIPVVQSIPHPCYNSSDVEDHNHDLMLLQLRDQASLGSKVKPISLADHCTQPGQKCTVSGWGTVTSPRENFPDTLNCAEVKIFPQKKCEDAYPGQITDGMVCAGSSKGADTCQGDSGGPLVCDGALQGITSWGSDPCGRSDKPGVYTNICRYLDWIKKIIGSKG
Description: as §1, §2, §3, §4, §5, §6, §7, §8, §9, §10

[3] = target: T3, urokinase plasminogen activator (uPA) (Homo sapiens, UniProt P00749); experiment: Enzyme kinetics to calculate kobs/I, uPA; type: biochemical
T3 construct: purchased BioTechne 1310-SE
Description: as §1, §2
(§11) The manufacturer’s recommended buffers were used with uPA and tPA but not KLK8. The KLK6 assay buffer was as follows: 50 mM Tris 150 mM NaCl, 1 mM EDTA, 0.05% Tween20, pH 7.5. The KLK7/8 buffer was as follows: 100 mM Na2PO4, 0.01% Tween20, pH 8.5. Fluorescence measurements were measured using an Envision plate reader. Fluorescence data was processed using Graphpad Prism 8. […]
as §5

[4] = target: T4, tissue plasminogen activator (tPA) (Homo sapiens, UniProt P00750); experiment: Enzyme kinetics to calculate kobs/I, tPA; type: biochemical
T4 construct: purchased BioTechne 7449-SE
T4 sequence (P00750 36-562): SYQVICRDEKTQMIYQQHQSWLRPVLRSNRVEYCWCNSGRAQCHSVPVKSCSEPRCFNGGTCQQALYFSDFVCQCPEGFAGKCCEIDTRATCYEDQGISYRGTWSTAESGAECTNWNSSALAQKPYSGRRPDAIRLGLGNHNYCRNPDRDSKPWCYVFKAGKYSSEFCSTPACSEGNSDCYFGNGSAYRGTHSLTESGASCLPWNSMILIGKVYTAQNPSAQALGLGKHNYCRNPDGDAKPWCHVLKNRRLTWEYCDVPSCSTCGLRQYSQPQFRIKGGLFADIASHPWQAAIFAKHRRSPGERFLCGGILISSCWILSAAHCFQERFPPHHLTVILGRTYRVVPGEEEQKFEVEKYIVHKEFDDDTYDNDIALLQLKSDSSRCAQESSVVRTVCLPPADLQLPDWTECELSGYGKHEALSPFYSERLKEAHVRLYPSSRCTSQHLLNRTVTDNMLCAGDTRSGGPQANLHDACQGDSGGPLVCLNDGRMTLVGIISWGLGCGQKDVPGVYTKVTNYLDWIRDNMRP
Description: as §1, §2, §11, §5

KLK6 = experiment: Enzyme kinetics to calculate kobs/I, KLK6; type: biochemical, human; conditions: KLK6 1.5 nM, fluorogenic substrate 22 5 µM, 50 mM Tris 150 mM NaCl 1 mM EDTA 0.05% Tween20 pH 7.5, room temperature, read every 30 s for 30 min, ex/em 380/440 nm, pseudo first order kinetics, corrected by (1 + [S]/KM), triplicates
KLK8 [5] = target: T2, KLK8; experiment: Enzyme kinetics to calculate kobs/I, KLK8; type: biochemical; conditions: for KLK8 kobs/I: KLK8 1 nM, Boc-VPR-AMC 30 µM, 100 mM Na2PO4 0.01% Tween20 pH 8.5, room temperature, 30 min, pseudo first order kinetics, triplicates
[6] = tested on: recombinant wild-type KLK6; experiment: In-gel fluorescence labelling of recombinant wild-type KLK6; type: binding, human; conditions: 1 h incubation
Source text: (§12) Figure 3 ABP validation. […] Pulldown lanes show enriched proteins after streptavidin binding.

KLK6[S195A] = experiment: In-gel fluorescence labelling of inactive KLK6[S195A]; type: binding, human; conditions: 1 h incubation
Source text: as §12

KLK7 [7] = target: T1, KLK7; experiment: Enzyme kinetics to calculate kobs/I, KLK7; type: biochemical; conditions: for KLK7 kobs/I: KLK7 34 nM, substrate 24 5 µM, 100 mM Na2PO4 0.01% Tween20 pH 8.5, room temperature, 30 min, pseudo first order kinetics, triplicates
Description: as §1, §2, §11, §5

endogenous tPA and uPA = experiment: Competition labelling in Capan-2 conditioned media (NeutrAvidin-HRP blot); conditions: 2 h preincubation then bABP 17 1 h, concentrations as high as 40 μM
Source text: as §12

Capan-2 cells [8] = conditions: Capan-2 cells (active KLK6), 2 μM, 24 h, relative to DMSO
Description: (§13) Next, the effect of KLK6 inhibition on migration and invasion of Capan-2 cells was assessed using a Boyden chamber assay.
(§14) (13 µL per condition). Control conditions included puromycin (100 µg/mL), DMSO only, Sytox green only or DMSO + Sytox green. The final inhibitor concentrations ranged from 2 µM to 125 nM. The cells were placed into an Incucyte with the incubator set at 37 °C and 5% CO2. Phase and green fluorescence were analysed every 4 h for 5 days.
(§15) Invasion/migration assays. Cell invasion was measured using Corning Fluoroblok inserts following a modified procedure11. Fluoroblok inserts were placed into the wells of a 24-well plate. Matrigel was suspended to 300 µg/mL in coating buffer (0.01M Tris, 0.7% NaCl, pH 8). The matrigel suspension (100 µL) was added into the Fluoroblok insert and the plate was left at 37 °C for 2 h. A migration control (with no matrigel) was also included. Cells were trypsinised and resuspended in serum-free DMEM.
(§16) The leftover buffer in the chambers was decanted and 500 µL of cells (100,000 per well) were seeded into the apical chamber of the insert. DMEM with 10% FBS (750 µL) was added into the basal chamber as a chemoattractant. The plate was incubated at 37 °C and 5% CO2 for 24 h. The chambers were removed and placed into a new 24-well plate containing 50 µM of CellTracker CMHC dye in HBSS. The cells were stained for 0.5 h and the chamber was removed and placed into the previous plate containing DMEM with 10% FBS. The cells were imaged for blue fluorescence (ex/em = 375/460) using a Celena S inverted fluorescence microscope. Percentage invasion was calculated by quantifying the cell area

BxPC-3 cells = BxPC-3 cells (no active KLK6), 2 μM, 24 h, relative to DMSO
Description: as §13, §14, §15, §16

[9] = tested on: recombinant tPA, uPA, or KLK6; conditions: 2 h incubation, then fABP 21 for 1 h, in-gel fluorescence
Capan-2 cells [10] = conditions: 0.13 to 2 μM, Incucyte live cell imaging every 4 h for 5 days, serum-free DMEM
Description: Incucyte assays for proliferation and toxicity
Proliferation was quantified using the Incucyte software by measuring percentage confluency. Sytox
green was used as a marker for cell death. Cell death was quantified by measuring total green
fluorescence of each well.
Incucyte (proliferation and toxicity) assays. Capan-2 cells were seeded in a sterile 96 well plate
(10,000 cells per well). The outermost wells were left empty to mitigate edge effects. Cells were grown
in growth media (10% FBS) overnight to adhere. The next day, the media was replaced with serum-free
DMEM (117 µL) containing Sytox green (250 nM) or a DMSO control.

[11] = tested on: intracellular proteases of Capan-2 cells; conditions: live Capan-2 cells or cell lysate, 2 h, NeutrAvidin-HRP blot
Description: S12. Probe treatment in live Capan-2 cells and cell lysate
Figure S12. Capan-2 cells were grown to 80% confluency, followed by the addition of bABP 17 or FP-biotin for 2 h. Cells were lysed, boiled with Laemmli buffer and analysed using a NeutrAivdin-HRP western blot (in cell blot). Standard Capan-2 lysate was also treated with the same amounts of bABP 17 and FP-biotin, followed by the same analysis (in lysate blot).
(1 picture or pasted object on this page, not shown here)

[12] = tested on: Capan-2 conditioned media proteome; conditions: 2 μM, 1 h, NeutrAvidin enrichment, LC–MS/MS, triplicate
Description: Pulldown experiments (LC-MS/MS) Conditioned media was diluted with PBS to exactly 1 mg/mL.
300 µg of total protein was used per replicate. Each condition was performed in triplicate. The inhibitor
or DMSO control (1:100 dilution) was incubated with the media at RT for 2 h with a gentle agitation.
for 1 h. The proteins were precipitated using the MeOH/H2O/CHCl3 method. The pellet was washed
twice with MeOH and dried in air for 5 min. The proteins were resuspended in 2% SDS, 50 mM HEPES
in H2O (pH 8) to a concentration of 10 mg/mL. 50 mM HEPES was added to gradually dilute the protein
back to 1 mg/mL and the samples were centrifuged (17,000 g, 5 min). A 1:1 mixture of NeutrAvidin
agarose resin (15 µL per 300 µg protein) and control agarose resin (15 µL per 300 µg protein) was
prepared and washed with 0.2% SDS, 50 mM HEPES. The test samples were added into the resin and
the mixture was shaken at RT for 2 h. The supernatant was removed, and the beads were washed with
3 × 0.2% SDS, 50 mM HEPES and 3 × 50 mM HEPES. The beads were resuspended in 50 mM HEPES
(50 µL). TCEP was added to a final concentration of 5 mM (1:20 dilution). Chloroacetamide was added
to a final concentration of 10 mM (1:20 dilution). The mixture was shaken at RT for 30 min. To digest
the peptides off the resin, 0.5 µL of trypsin (0.2 mg/mL stock) was added into each sample and the
samples were shaken at 37 °C overnight. […]

endogenous active KLK6 = conditions: Capan-2 conditioned media, streptavidin pulldown, KLK6 western blot
Description: Conditioned media was incubated with bABP 17 (10 μM) or DMSO for 2 h, and labeled proteins enriched on magnetic streptavidin-loaded beads, eluted, and analyzed by western blot against a KLK6 antibody.
Cell culture. Cells were cultured in their recommended culture media supplemented with 10% (v/v)
foetal bovine serum at 37 °C and 5% CO2.
Preparation of conditioned media. Cells were grown in standard growth media to 80% confluency in
a T175 flask. The medium was removed, and the cells were washed with serum-free, phenol-red free
RPMI. The cells were incubated with the same RPMI for 2 h. The medium was replaced once again
with serum-free, phenol-red free RPMI and the cells were incubated for 48 h. The condition medium
was collected and filtered through a 0.2 µm syringe filter. The medium was concentrated (25 mL to
0.75 mL) using a 3 kDa Mw cutoff spin filter to a final concentration of around 1 mg/mL. The protein
concentration was measured using a BioRad DCTM protein assay.
Pulldown experiments (western blot). Conditioned media was diluted with PBS to exactly 1 mg/mL.
200 µg of total protein was used per condition. The ABP or DMSO was added at a 1:100 dilution and
the samples were shaken at RT for 1 h. The proteins were precipitated using the MeOH/H2O/CHCl3
method. The pellet was washed twice with MeOH and dried in air for 5 min. The protein was
resuspended in 2% SDS in PBS to a concentration of 10 mg/mL. PBS was added to gradually dilute
the protein back to 1 mg/mL and the samples were centrifuged (17,000 g, 5 min). 5 µg of protein was
set aside as the “before pulldown” samples. Magnetic streptavidin beads were washed three times with
PBS. The rest of the protein was added into the beads and shaken at RT for 2 h. 5 µg of the supernatant
was set aside for analysis, while the rest was discarded. The beads were washed three times with 1%
SDS in PBS. […]
were boiled at 95 °C for 5 min. The proteins were analysed via SDS-PAGE and western blot analysis. […]
10 min, followed by 180 V for 60 min. Gels were then taken for western blot or in-gel fluorescence. […]

[13] = Fluoroblok insert without Matrigel
[14] = Matrigel-coated Fluoroblok insert

Km (KLK7 [1]): 56 µM
Substance: Ac-KHLF-{ACC} (SMILES CC(=O)N[C@@H](CCCCN)C(=O)N[C@@H](Cc1c[nH]cn1)C(=O)N[C@@H](CC(C)C)C(=O)N[C@@H](Cc1ccccc1)C(=O)Nc1ccc2c(CC(N)=O)cc(=O)oc2c1) [compound 24, purified fluorogenic substrate for KLK7]

Km (KLK8 [2]): 290 µM
Substance: Boc-Val-Pro-Arg-{AMC}

uPA kobs/I ([3]; uPA 2 nM, Z-GGR-AMC 60 µM, manufacturer's buffer, room temperature, 30 min, pseudo first order kinetics, triplicates): 0 M⁻¹ s⁻¹ | tPA kobs/I ([4]; tPA 2 nM, Z-GGR-AMC 60 µM, manufacturer's buffer, room temperature, 30 min, pseudo first order kinetics, triplicates): 8 M⁻¹ s⁻¹ | KLK6 kobs/I (KLK6): 1000 M^–1 s^–1 | KLK8 kobs/I (KLK8 [5]): 40 M^–1 s^–1 | KLK7 kobs/I (KLK7 [7]): 26 M⁻¹ s⁻¹
Substance: Cy5–DPhe–Ser(Z)–Dht–ArgPP [compound 21, Cy5-tagged KLK6 ABP]
labeling of active recombinant KLK6 [6]: dose-dependent labeling | labeling of inactive KLK6[S195A] mutant (KLK6[S195A]): not labeled

KLK6 kobs/I (KLK6): 3000 M^–1 s^–1
Substance: Yn–DPhe–Ser(Z)–Dht–ArgPP [compound 19]
engagement of endogenous tPA and uPA (endogenous tPA and uPA): does not substantively engage

Substance: biotin–Ahx–DPhe–Ser(Z)–Dht–ArgPP [compound 17]
selectivity for KLK6 over uPA ([3]; ratio of kobs/I): > 600 fold | effect on migration (Capan-2 cells [8]; [13]): reduced | effect on invasion (Capan-2 cells [8]; [14]): reduced | effect on migration (BxPC-3 cells; [13]): no effect | effect on invasion (BxPC-3 cells; [14]): no effect | inhibition of recombinant KLK6 versus tPA and uPA [9]: selectively inhibit KLK6 over the two off-targets | selectivity for KLK6 over tPA ([4]; ratio of kobs/I): > 600 fold | KLK6 kobs/I (KLK6): 11000 M^–1 s^–1 and 11000 ± 300 M^–1 s^–1 | KLK6 kobs/I (KLK6; listed as IMP-2352): 11,000 M^–1 s^–1 | KLK8 kobs/I (KLK8 [5]): 140 M^–1 s^–1 and 140 ± 5 M^–1 s^–1 | selectivity for KLK6 over KLK8 (KLK8 [5]; ratio of kobs/I): > 70 fold | effect on proliferation (percentage confluency) (Capan-2 cells [10]): no effect | labeling of intracellular proteases [11]: did not label any intracellular protease | proteases labeled/enriched over DMSO control [12]: KLK6, along with two off-targets, uPA and tPA | KLK7 kobs/I (KLK7 [7]): 350 M⁻¹ s⁻¹ and 350 ± 90 M⁻¹ s⁻¹ | selectivity for KLK6 over KLK7 (KLK7 [7]; ratio of kobs/I): > 30 fold | labeling of endogenous KLK6 (endogenous active KLK6): efficiently labels endogenous active KLK6 | lowest probe concentration detecting active KLK6 (endogenous active KLK6; dose-dependent): 50 nM
